According to PMC7895558, “Antiprotozoal Compounds from Urolepis hecatantha (Asteraceae)” (Evidence-based Complementary and Alternative Medicine : eCAM, 2021):
Values joined by “and” are separate entries in the source; they are usually repeats but may differ in a detail not shown here. Equal entries are not always repeated. Where two headings read alike, the source gives them in different places.

Columns and labels:
[1] = system: Trypanosoma cruzi epimastigotes (Tulahuen 2 strain); assay: in vitro anti-Trypanosoma cruzi activity (epimastigote growth, absorbance 600 nm); assay type: cell-based; settings: for IC50: Trypanosoma cruzi, TULAHUEN, 120 h, read-out: IC50 on T. cruzi epimastigotes
Protocol: (§1) For the anti-Trypanosoma and anti-Leishmania activity assays, we followed the methods described by Aguilera et al., 2019 [15].
For the in vitro anti-Trypanosoma cruzi activity, epimastigotes of the Tulahuen 2 strain (genotype TcVI) grown in an axenic medium (BHI-Tryptose) were used. Cells from a 5–7-day-old culture were inoculated in a fresh culture medium to give an initial concentration of 10^6 cells/mL. The absorbance at 600 nm of the cells in culture was measured every day. On day five, the medium was inoculated with different doses of the compounds (25–0.05 µM) from a stock solution in dimethylsulfoxide (DMSO) (DMSO concentration in the culture medium never exceeded 0.4%). Control parasites were cultivated in medium with 0.4% DMSO v/v. Benznidazole was used as a positive control. At five days, the absorbance of the culture was measured and compared to the control and the IC50 values were calculated for each compound using OriginLab 8.5® sigmoidal regression. Each experiment was done in duplicate, and each concentration was tested in triplicate.

[2] = cytotoxicity assay (MTT); assay type: cell-based; settings: mouse
Protocol: The cytotoxicity of the dewaxed dichloromethane extract of U. hecatantha and the isolated compounds was evaluated according to the method described by Aguilera et al., 2019 [15]. The J774.1 murine macrophages (ATCC, USA) were grown in a DMEM culture medium containing 4 mM L-glutamine and supplemented with 10% FCS. Cells were seeded in a 96-well plate (5.00 × 10^4 cells in 200 µL culture medium) and incubated at 37°C in a 5% CO2 atmosphere for 48 h, to allow cell adhesion before drug testing. Afterwards, cells were exposed for 48 h to the compounds (25–400 µM) or the vehicle for control (medium with 0.4% DMSO v/v), and additional control (cells in medium) were used in each test. Cell viability was then assessed by measuring the mitochondria-dependent reduction of MTT [3-(4,5-dimethylthiazol-2-yl)-2,5-diphenyltetrazolium bromide] to formazan. For this purpose, MTT in sterile PBS (containing 0.2% glucose), pH 7.4, was added to the macrophages to achieve a final concentration of 0.1 mg/mL, and the cells were incubated at 37°C for 3 h. After removing the medium, formazan crystals were dissolved in 180 µL of DMSO and 20 µL of MTT buffer (0.1 M glycine, 0.1 M NaCl, 0.5 mM EDTA, pH 10.5), and the absorbance at 560 nm was measured. The CC50 was defined as the drug concentration at which 50% of the cells were viable, relative to the control (no drug added), and was determined using OriginLab 8.5® sigmoidal regression (% of viable cells compared to the logarithm of the compound concentration). Tests were performed in triplicate.

[3] = system: Leishmania infantum promastigotes; assay: anti-Leishmania activity (promastigotes, resazurin); assay type: cell-based; settings: 48 h, read-out: IC50 on L. infantum promastigotes
Protocol: as §1
Leishmania infantum (MHOM/BR/2002/LPC-RPV) was obtained from Fiocruz (Collection of Oswaldo Cruz Foundation, Rio de Janeiro, Brazil). Promastigotes were cultured as described with some modifications at 28°C in an axenic medium (BHI-Tryptose supplemented with: FBS 10%, hemine 2 × 10^−5 mg/mL, glucose 3.0 × 10^−4 g/mL, streptomycin 2.0 × 10^−4 g/mL, ampicillin 1.3 × 10^−4 g/mL) as a low-cost alternative for Leishmania spp. culture. Assays were performed in 96-well plastic plates using 2 × 10^6 promastigotes per well. Compounds were dissolved in DMSO. Different serial dilutions (25–0.05 µM) of the compounds with a final volume up to 200 µL were added. After 48 h at 28°C, 20 µL of a 2 mM resazurin solution was added, and the oxidation-reduction was quantified at 570 and 600 nm. The resazurin solution was prepared at 2.5 mM in phosphate-buffered solution (PBS), pH 7.4, and filtered through 0.22 µm before use. Resazurin sodium salt was obtained from Sigma-Aldrich (St. Louis, MO, USA) and stored at 4°C protected from light. Glucantime was used as a positive control. The efficacy of each compound was estimated by calculating the IC50 values using OriginLab 8.5® sigmoidal regression. Each antiproliferative experiment was done in duplicate, and each concentration was tested in triplicate.

[4] = system: Trypanosoma brucei rhodesiense trypomastigotes; settings: cited from earlier work
[5] = system: L6-cell line from rat-skeletal myoblasts; design: method as in PMID 29244495; settings: read-out: CC50 on L6 cells; cited from earlier work
[6] = Leishmania infantum, promastigotes

| IC50 ([1]; epimastigotes, 5 days) | Compound | CC50 at 48 h ([2]; J774.1 murine macrophages) [µM] | IC50 [3, 6] | other results |
| --- | --- | --- | --- | --- |
| 7 ± 2 µM | O=C(Cn1ccnc1[N+](=O)[O-])NCc1ccccc1 [benznidazole, reference compound] | – | – | – |
| > 25 µM | COc1cc(-c2oc3cc(O)c(OC)c(O)c3c(=O)c2OC)ccc1O [compound 2, jaceidin] | > 25 | > 25 µM | – |
| 18 µM and 7.6 µg/mL | C=C1C(=O)O[C@@H]2/C=C(\C)[C@@H](O)C/C=C(\C)C[C@@H](OC(=O)/C(=C/CO)COC(C)=O)[C@@H]12 [compound 3, santhemoidin C] | > 15 | 19 µM and 8 µg/mL | – |

The remaining lines, values behind:

| Compound | IC50 ([1]; epimastigotes, 5 days) | CC50 at 48 h ([2]; J774.1 murine macrophages) [µM] | IC50 [3, 6] | other results |
| --- | --- | --- | --- | --- |
| C=C(C)c1cc2cc(C(C)=O)c(O)cc2o1 [compound 1, euparin] | – | – | – | CC50 at 48 h ([2]; murine macrophages): > 25 µM; IC50 [1]: > 25 µM; IC50 ([3]; Leishmania infantum): 18 µM and 3.9 µg/mL |
| C=C1C(=O)O[C@@H]2/C=C(/C)[C@@H](OC(C)=O)C/C=C(\C)C[C@@H](OC(=O)/C(=C/CO)CO)[C@@H]12 [compound 4, eucannabinolide] | 10 µM and 4.2 µg/mL | – | > 25 µM | IC50 ([4]; loaded onto polylactic acid nanoparticles, target not restated in the sentence, read-out: free drug equivalent IC50): 3320 nM; IC50 ([4]; read-out: IC50 against Trypanosoma brucei rhodesiense trypomastigotes): 1100 ± 100 nM; CC50 [5]: 7.8 ± 0.8 µM; CC50 ([2]; murine macrophages, 48 h): 15 µM; selectivity index (SI) on T. cruzi ([1]; macrophage CC50 versus T. cruzi epimastigote IC50): 1.5 |
| Glucantime [reference compound] | – | – | – | IC50 ([3]; promastigotes): 26 ± 9 µM |
